According to patent US8080251B2, “Antigenic peptides” (Centre for DNA Fingerprinting and Diagnostics, priority 2004, dated 2011):

B1: rRv2608: 59.6 kDa recombinant M. tuberculosis PPE_MPTR protein Rv2608, expressed in E. coli BL21 as 6×His-tag fusion protein (protein)
chain: MNFAVLPPEVNSARIFAGAGLGPMLAAASAWDGLAEELHAAAGSFASVTTGLAGDAWHGPASLAMTRAASPYVGWLNTAAGQAAQAAGQARLAASAFEATLAATVSPAMVAANRTRLASLVAANLLGQNAPAIAAAEAEYEQIWAQDVAAMFGYHSAASAVATQLAPIQEGLQQQLQNVLAQLASGNLGSGNVGVGNIGNDNIGNANIGFGNRGDANIGIGNIGDRNLGIGNTGNWNIGIGITGNGQIGFGKPANPDVLVVGNGGPGVTALVMGGTDSLLPLPNIPLLEYAARFITPVHPGYTATFLETPSQFFPFTGLNSLTYDVSVAQGVTNLHTAIMAQLAAGNEVVVFGTSQSATIATFEMRYLQSLPAHLRPGLDELSFTLTGNPNRPDGGILTRFGFSIPQLGFTLSGATPADAYPTVDYAFQYDGVNDFPKYPLNVFATANAIAGILFLHSGLIALPPDLASGVVQPVSSPDVLTTYILLPSQDLPLLVPLRAIPLLGNPLADLIQPDLRVLVELGYDRTAHQDVPSPFGLFPDVDWAEVAADLQQGAVQGVNDALSGLGLPPPWQPALPRLF
modifications: left off: small tags and cut ends

Tests used:
[1] = test system: serum IgG antibodies (patient sera); assay: ELISA of serum IgG antibody response of TB patients to rRv2608 protein / synthetic peptides; assay type: binding, human; details: for Reactivity with patient sera: TB patient sera, ELISA; for Mean (O.D. at 492 nm): humoral response, antigen 2 μg/ml
[2] = test system: peripheral blood mononuclear cells (PBMCs); assay: Lymphocyte (T cell) proliferation assay, MTT readout; assay type: cell-based, human; details: comparison between patient categories / between peptides
[3] = Category I patients (TB diagnosed for the first time, n=22)
[4] = Category II patients (relapsed TB, n=21)
[5] = Category III patients (extrapulmonary TB, n=8)

| Molecule | Reactivity with patient sera [1] | Mean (O.D. at 492 nm) [1, 3] | Mean (O.D. at 492 nm) [1, 4] | Mean (O.D. at 492 nm) [1, 5] | T cell proliferative response [2] | T cell proliferative response ([2]; listed as Peptide 2) | T cell proliferative response ([2]; listed as peptide 2) | Serum reactivity of extrapulmonary TB patients ([1]; Category III compared to Category I or II) | Serum reactivity compared with Hsp10 ([1]; all patient categories, p>0.05) | Serum reactivity of healthy controls ([1]; healthy controls (n=10) vs patients, p=0.0002) |
| --- | --- | --- | --- | --- | --- | --- | --- | --- | --- | --- |
| GIGNIGDRNLGIK (listed as Mycobacterium tuberculosis) [Peptide P1d, 13-residue overlapping peptide, component of peptide 1] | react equally well with patient sera | 0.482 | 0.787 | 0.527 |  |  |  |  |  |  |
| DNIGNANIGFGNK (listed as Mycobacterium tuberculosis) [Peptide P1a, 13-residue overlapping peptide, component of peptide 1] | react equally well with patient sera | 0.426 | 0.770 | 0.473 |  |  |  |  |  |  |
| GNPNRPDGGILTK (listed as Mycobacterium tuberculosis) [Peptide P2c, 13-residue overlapping peptide, part of peptide 2] | react equally well with patient sera | 0.491 | 0.632 | 0.410 | comparatively higher T cell response |  |  |  |  |  |
| LSFTLTGNPNRPK (listed as Mycobacterium tuberculosis) [Peptide P2b, 13-residue overlapping peptide, part of peptide 2] | react equally well with patient sera | 0.450 | 0.498 | 0.422 |  |  |  |  |  |  |
| NIGFGNRGDANIK (listed as Mycobacterium tuberculosis) [Peptide P1b, 13-residue overlapping peptide, component of peptide 1] | react equally well with patient sera | 0.469 | 0.775 | 0.520 |  |  |  |  |  |  |
| RGDANIGIGNIGK (listed as Mycobacterium tuberculosis) [Peptide P1c, 13-residue overlapping peptide, component of peptide 1] | react equally well with patient sera | 0.416 | 0.810 | 0.380 |  |  |  |  |  |  |
| DRNLGIGNTGNWK (listed as Mycobacterium tuberculosis) [Peptide P1e, 13-residue overlapping peptide, component of peptide 1] | react equally well with patient sera | 0.407 | 0.711 | 0.405 |  |  |  |  |  |  |
| RPGLDELSFTLTGNPNRPDGGILTK (listed as Mycobacterium tuberculosis) [Peptide P2] | strongly react with patient sera | 0.480 | 0.706 | 0.441 | comparatively higher T cell response | higher response in fresh infection cases | fresh infection cases>relapsed TB>extrapulmonary TB cases |  |  |  |
| DNIGNANIGFGNRGDANIGIGNIGDRNLGIGNTGNWK (listed as Mycobacterium tuberculosis) [Peptide P1] | strongly react with patient sera | 0.412 | 0.675 | 0.483 |  |  |  |  |  |  |
| RPGLDELSFTLTK (listed as Mycobacterium tuberculosis) [Peptide P2a, 13-residue overlapping peptide, part of peptide 2] | react equally well with patient sera | 0.473 | 0.689 | 0.392 |  |  |  |  |  |  |
| B1 |  |  |  |  |  |  |  | less reactivity | equal to or higher than the response to Hsp10 | significantly less when compared to that of patients |
